We go through three molecules from patent US20220117948A1, “TRITERPENOID ANTIFUNGALS FOR THE TREATMENT OF FUNGAL OSTEO-ARTICULAR INFECTIONS” (Scynexis, Inc., priority 2019, published 2022).

Starred links: 1 amine or outer side, 2 acyl side, 3 side chain; linkers in the order of their positions; H or OH if unused. Positions of bridges follow the written chain, without caps; N, C: chain ends. Non-standard residues stand in square brackets, D forms with d. Residues, ends and D or L forms follow the SMILES beside them. *: point of attachment. pTerphenylCO(4''-OnC5H11) = CCCCCOc1ccc(-c2ccc(-c3ccc(C(=O)*)cc3)cc2)cc1; Orn(4R-OH,5R-OH) = O=C([C@H](C[C@@H](O)[C@@H](O)N[*:3])N[*:1])[*:2]; hTyr(3S-OH,4S-OH) = N[C@H](C(=O)O)[C@H](O)[C@@H](O)c1ccc(O)cc1; Pro(3S-OH,4S-Me) = C[C@H]1CN[C@H](C(=O)O)[C@H]1O; Hyp = O=C(O)[C@@H]1C[C@@H](O)CN1

The subject of data set [1] is sessile (biofilm) forms of Candida and non-Candida isolates. As to conditions: XTT reduction assay, confirmed by scanning electron microscopy; cited from earlier work. For orientation: Tetrazolium assays rely on reduction of a dye to a coloured formazan, in cell work by metabolically active cells.
For data set [2], the system named is Candida and non-Candida isolates causing fungaemia. As to conditions: 178 Candida and non-Candida isolates causing fungaemia; EUCAST E Def 7.3 and CLSI M27-A3; cited from earlier work.
The test system of data set [3] is Candida tropicalis spondylodiscitis. The data set is classed as in vivo, human. The conditions noted are these: Example B: person, Candida tropicalis spondylodiscitis L5/S1; oral 750 mg BID 2 days then 750 mg QD (citrate salt tablets); 88 days of treatment. From the text:
(§1) This example presents treatment courses of two patients with Candida spondylodiscitis who were enrolled in an “Open-Label Study to Evaluate Efficacy and Safety of SCY-078 in Patients With Refractory or Intolerant Fungal Diseases (FURI)” (clinicaltrials.gov identifier NCT03059992).
(§2) Objective: The objective of the study is to evaluate the efficacy of orally administered SCY-078 for the treatment of fungal infections that are refractory to or intolerant of approved antifungal agents.
(§3) Study design: This is a multicenter, open-label, non-comparator, single-arm study to evaluate the efficacy, safety, and pharmacokinetics (PK) of SCY-078 (administered as the citrate salt) in male and female subjects≥18 years of age with documented invasive and/or severe candidiasis that has been refractory to or intolerant of, or has shown toxicities associated with standard of care (SoC) antifungal treatment. Subjects must have a documented eligible acute or chronic invasive candidiasis (including candidemia) and meet all study criteria to be considered for enrollment. […]
(§4) Efficacy: Efficacy will be assessed primarily in terms of global success (both clinical success and mycological success). Complete global response, partial global response, clinical success, and mycological success will also be assessed. […]

Data set [4] relates to Candida albicans spondylodiscitis. Format: in vivo, human. The conditions noted are these: Example A: person, Candida albicans spondylodiscitis L4/L5; oral 750 mg BID 2 days then 750 mg QD (citrate salt tablets); 277 days of treatment.
Source text: as §1, §2, §3, §4

Details of data set [5]: species or system male pigmented Long-Evans rats. The conditions noted are these: rat, in vivo. How it is done: As a first step of the feasibility evaluation, the tissue distribution of SCY-078 was evaluated in an animal model. […] WH rats were used for mass balance and pharmacokinetic (PK) determinations after i.v. and oral doses, and both WH and LE rats were used for Quantitative whole-body autoradiography (QWBA) determinations. Dose levels were selected to reflect the clinically relevant 11.2-μg·h/ml target exposure for Candida spp. infections. The concentration, homogeneity, radio purity, and stability of dosing formulations were confirmed to be acceptable before dosing. For QWBA whole-body sections (˜40 μm thick via Leica CM3600 cryomicrotome; Nussloch, Germany), where all major tissues, organs, and biological fluids were represented, sections were exposed for phosphor imaging (Fuji Biomedical, Stamford, Conn.) together with calibration standards. […] Quantification was performed by image densitometry with MCID image analysis software (v. 7.0; Interfocus Imaging Ltd., Linton, Cambridge, UK), and a standard curve was constructed from the integrated response (molecular dynamics counts [MDC]/mm2) and the nominal concentrations of the 14C-calibration standards. The concentrations of radioactivity were expressed as [14C]SCY-078 μg equiv/g tissue. The lower limit of quantitation was 0.024 and 0.049 μg equiv/g of tissue for i.v. and oral doses of SCY-078, respectively. […]

The conditions of data set [6]: cited from earlier work.
For data set [7] the following is noted: mice; cited from earlier work.

As to `CC(C)[C@@H](C)[C@@]1(C)CC[C@]2(C)[C@H]3CC[C@@H]4[C@@]5(COC[C@@]4(C)[C@@H](OC[C@](C)(N)C(C)(C)C)[C@H](n4ncnc4-c4ccncc4)C5)C3=CC[C@@]2(C)[C@@H]1C(=O)O` [SCY-078, (1S,4aR,6aS,7R,8R,10aR,10bR,12aR,14R,15R)-15-[[(2R)-2-amino-2,3,3-trimethylbutyl]oxy]-8-[(1R)-1,2-dimethylpropyl]-14-[5-(4-pyridinyl)-1H-1,2,4-triazol-1-yl]-1,6,6a,7,8,9,10,10a,10b,11,12,12a-dodecahydro-1,6a,8,10a-tetramethyl-4H-1,4a-propano-2H-phenanthro[1,2-c]pyran-7-carboxylic acid], in data set [1], the antibiofilm activity result was “activity against the biofilms”. Also, the “in vitro activity against planktonic form” value in data set [2] is “potent in vitro activity”. Also, the “patient's response to date” value in data set [3] was “resolved”. Moreover, the “patient's response to date” value in data set [4] is recorded as “improved”. For the same molecule, in data set [5], the “exposure observed in bone compared with plasma” value is on record as “exceeded the exposure measured in plasma” and the “exposure observed in bone marrow compared with plasma” value is “exceeded the exposure measured in plasma”.

Turning to `CCCCCOc1ccc(-c2ccc(-c3ccc(C(=O)N[C@H]4C[C@@H](O)[C@@H](O)NC(=O)[C@@H]5[C@@H](O)[C@@H](C)CN5C(=O)[C@H]([C@@H](C)O)NC(=O)[C@H]([C@H](O)[C@@H](O)c5ccc(O)cc5)NC(=O)[C@@H]5C[C@@H](O)CN5C(=O)[C@H]([C@@H](C)O)NC4=O)cc3)cc2)cc1` [anidulafungin] ({pTerphenylCO(4''-OnC5H11)}-[Orn(4R-OH,5R-OH)]T[Hyp][hTyr(3S-OH,4S-OH)]T[Pro(3S-OH,4S-Me)]; lactam 1-C), in data set [6] (neonatal rats after a single dose), the bone/plasma concentration ratio is 0.21. In addition, the “skeletal muscle concentrations compared with plasma” value in data set [6] (rats) was “comparable to those in plasma”.

Turning to `CC[C@H](C)C[C@H](C)CCCCCCCCC(=O)N[C@H]1C[C@@H](O)[C@@H](NCCN)NC(=O)[C@@H]2[C@@H](O)CCN2C(=O)[C@H]([C@H](O)CCN)NC(=O)[C@H]([C@H](O)[C@@H](O)c2ccc(O)cc2)NC(=O)[C@@H]2C[C@@H](O)CN2C(=O)[C@H]([C@@H](C)O)NC1=O` [caspofungin], the “skeletal muscle concentrations as % of those in plasma” value in data set [7] is reported as “less than 50%”.
